Key:
mice [1] = test: Oral toxicity in mice (LDO, LD50); assay type: in vivo; conditions: gummy julep (No. 1 and 13 in Tween), 2 weeks observation
Protocol: (§1) This toxicity is estimated by the calculation of the lethal dose of 50 (LD 50) which determines the fatal dose of the substance for 50% of the animals tested. This determination was effected in accordance with a modification of the method by Litchfield and Wilcoxon (J. Pharmacol. Exp. Therap. 1949, 96, 99-113).
(§2) Swiss mice without specific pathogenic organisms were kept in air conditioned rooms 24 to 48 hours before the start of the tests. They were divided into batches of 5.male. and 5.female.. With the animals unfed for 24 hours, the substances were intragastically administered in suspension in 2% Tween 80 or in 6% gummy julep in a volume equivalent to 0.1 ml per 10 g of the weight of the animal.
(§3) They remained under observation for two weeks before being killed and subjected to an autopsy.
(§4) All products were administered in gummy julep except No. 1 and No. 13 which were administered in Tween. The analgesic activity were determined in mice by utilizing as a nociceptive agent, phenylbenzoquinone (PBQ) (modification of the method by Siegmund and co-workers Proc. Soc. Exp. Biol. Med. 1957, 95, 729-31). The process consists of seeking a possible protection for the mouse vis-a-vis abdominal twisting and stretching of the hind legs induced by the parental injection of PBQ. 25 minutes after having orally administered the products to be tested in suspension in 2% Tween 80 or in 6% gummy julep, the PBQ solution was injected and the mice were observed after 5 minutes during the following 5 minutes. For certain products, AD 50 is presented as a measure of activity.

rats [2] = test: Anti-inflammatory activity: carragenic test (carragenine-induced edema of the hind leg); assay type: in vivo, male rats; conditions: for ED50: oral
Protocol: All products were administered in gummy julep except No. 1 and No. 13 which were administered in suspension in Tween. The anti-inflammatory activity was determined by the carragenic test with male rats. Inflammation was induced by the injection of 0.1 ml of a 0.5% suspension of carragenine in a physiological serum into the muscular fasciculus of the metatarsal region of the hind leg of the animal. The substance to be tested was orally administered simultaneously with the carragenine. The edema was measured by phethysmography 1, 2, 3, 4, 5 and 6 hours after the administration of the carragenine.
**50 mg/kg No. 13 which were administered in suspension in Tween.

mice [3] = test: Analgesic activity: protection against abdominal twisting induced by phenylbenzoquinone (PBQ); assay type: in vivo; conditions: for ED50: Mus musculus, oral, read-out: AD 50 (the source's name)
Protocol: as §4, with “activity. […]” for “activity.”

[4] = Oral toxicity in mice (LDO, LD50); assay type: in vivo; conditions: mouse, in vivo; for LD50 at 336 h: gummy julep (No. 1 and 13 in Tween), 2 weeks observation
Protocol: as §1, §2, §3, §4

rats [5] = test: Ulcerous activity (modified method of Colot); assay type: in vivo, female EOPS rats; conditions: 250 mg/kg oral daily
Protocol: Ulcerous activity was determined according to a modification of the method by Colot (Technical notions of general pharmacology, 1972) in the case of femal EOPS rats of approximately 150 g. The animals were left without absolutely any food, while the test products were orally administered on a daily basis in suspension in 2% Tween at a volume of 0.5 ml/100 g. The animals were killed under chloroform and the stomachs were removed. Ulcerous activity was established by means of an index taking into account the degree of ulceration and the percentage of animals effected.
In the table given below, a comparison is shown between the results obtained with niflumic acid and product No. 1.

Molecule	LDO (maximum dose which did not lead to any mortality) (mice [1])	% activity (inhibition of edema) (rats [2]; 150 mg/kg oral, 2H) [%]	% activity (inhibition of edema) (rats [2]; 150 mg/kg oral, 4H) [%]	% activity (inhibition of edema) (rats [2]; 300 mg/kg oral, 2H) [%]	% activity (inhibition of edema) (rats [2]; 300 mg/kg oral, 4H) [%]	% activity (mice [3]; 200 mg/kg oral) [%]	% activity (inhibition of edema) (rats [2]; 400 mg/kg oral, 4H) [%]	ED50 (mice [3]) [mg/kg]	other results
O=C(O)c1cc2c(cc1NC1OC(=O)c3ccccc31)OCO2 (centres unmarked) [Product 15]	> 2000 mg/kg	15	21	15	4	26	–	–	–
CCCCC1(C)Oc2ccc(NC3OC(=O)c4ccccc43)cc2O1 (centres unmarked) [Product 5]	> 2000 mg/kg	–	–	–	–	42	17	270	LD50 at 336 h [4]: > 2000 mg/kg; % activity (inhibition of edema) (rats [2]; 200 mg/kg oral, 4H): 28%
Cc1cc(NC2OC(=O)c3ccccc32)c(C)c2c1OCOC2 (centres unmarked) [Product 22]	> 2000 mg/kg	35	31	–	–	38	–	260	–
CC(=O)OCC1COc2ccc(NC3OC(=O)c4ccccc43)cc2O1 (centres unmarked) [Product 19]	> 2000 mg/kg	21	23	26	27	–	–	500	% activity (mice [3]; 300 mg/kg oral): 21%
O=C1OC(Nc2ccc3c(c2)OCO3)c2ccccc21 (centres unmarked) [Product 1]	–	–	–	–	–	–	–	–	IA: Acute ulceration index (rats [5]; 1 day): 0; IC: Ulceration index on the way of cicatrization (rats [5]; 1 day): 1.5; IA: Acute ulceration index (rats [5]; 3 days): 5; IC: Ulceration index on the way of cicatrization (rats [5]; 3 days): 22; LD50 at 336 h [4]: ~2600 mg/kg
O=C1OC(Nc2ccc3c(c2)OCC(CO)O3)c2ccccc21 (centres unmarked) [Product 17]	> 2000 mg/kg	27	17	29	8	28	–	420	–
N(2,2-dimethyl benzodioxol-1,3 yl-5) 3-amino 3H-isobenzofuranone-1 [Product 7]	–	68	43	–	–	86	68	–	% activity (inhibition of edema) (rats [2]; 400 mg/kg oral, 2H): 72%; ED50 (rats [2]; 2H): 75 mg/kg; ED50 (rats [2]; 4H): 220 mg/kg
COC(=O)c1cc2c(cc1NC1OC(=O)c3ccccc31)OCO2 (centres unmarked) [Product 16]	> 2000 mg/kg	12	10	–	–	–	–	–	% activity (mice [3]; 100 mg/kg oral): 33%
CC1(C)Oc2ccc(NC3OC(=O)c4ccccc43)cc2O1 (centres unmarked) [Product 7]	~ 1000 mg/kg	–	–	–	–	81	25	80	mortality at 336 h ([4]; at 2000 mg/kg, read-out: deaths (LD50 column)): 70%; % activity (inhibition of edema) (rats [2]; 200 mg/kg oral, 2H): 19%; % activity (inhibition of edema) (rats [2]; 200 mg/kg oral, 4H): 20%; % activity (inhibition of edema) (rats [2]; 400 mg/kg oral, 2H): 23%
O=C1OC(Nc2ccc3c(c2)OC(CO)CO3)c2ccccc21 (centres unmarked) [Product 18]	> 2000 mg/kg	16	6	22	0	44	–	260	–

From patent US4122202A, “Amino-3H-isobenzofuranones N-substitutes and their therapeutic application” (Societe Cortial, priority 1975, dated 1978)
